ChEMBL document CHEMBL1201862, “PubChem BioAssay data set” (2004)
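Growth conditions: 96-well plates. Treatment: test compound, 48 hours, 5 concentrations. Analysis: linear interpolation between bracketing concentrations; unreached endpoints set to highest concentration. Here, GI50 denotes the concentration required for 50% inhibition of growth.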 Activity calls are given as the source filed them. Rule as the data show it: active = GI50 up to about 1.1 µM and inactive = higher.

Experiments:
Assay in all cases: NCI-60 cell line screen, 48 h
HOP-18 = test system: HOP-18
LXFL 529 = test system: LXFL 529
DMS-273 = test system: DMS-273
DLD-1 = test system: DLD-1
KM-20L2 = test system: KM-20L2
RXF 631 = test system: RXF 631
SNB-78 = test system: SNB-78
XF498 = test system: XF498
M19-MEL = test system: M19-MEL

Measured: GI50

[O-][n+]1c(-c2ccccc2)oc2ccccc21
inactive: HOP-18 6.44 µM | LXFL 529 9.04 µM | DMS-273 12.6 µM | DLD-1 7.82 µM | KM-20L2 21.1 µM | RXF 631 47 µM | SNB-78 41.4 µM | XF498 35.6 µM | M19-MEL 1.89 µM

C=C(C)C(=O)/N=C(\N)NC#N
inactive: HOP-18 > 41.8 µM | LXFL 529 63.4 µM | DMS-273 44 µM | DLD-1 68.9 µM | KM-20L2 105 µM | RXF 631 > 100 µM | SNB-78 48.3 µM | XF498 41.8 µM | M19-MEL 23.6 µM
